Laboratory results taken from publication PMC3807862 (Journal of medicinal chemistry, 2013).

What was measured:
human urine urokinase = human urine urokinase (Homo sapiens, UniProt P00749); assay: Urokinase inhibition; format: biochemical
[1] = Spontaneous hydrolysis in aqueous buffer; format: physicochemical; conditions: 20 μM
human plasma thrombin = human plasma thrombin (Homo sapiens, UniProt P00734); assay: Thrombin inhibition; format: biochemical
HNE = biological target: T1, HNE (Homo sapiens, UniProt P08246); assay: HNE inhibition over time; format: biochemical; conditions: for time to recovery of HNE activity after treatment: up to 5 μM compound; for period of maximal HNE inhibition (during the first x h): 5 μM compound
T1 sequence (P08246 30-267): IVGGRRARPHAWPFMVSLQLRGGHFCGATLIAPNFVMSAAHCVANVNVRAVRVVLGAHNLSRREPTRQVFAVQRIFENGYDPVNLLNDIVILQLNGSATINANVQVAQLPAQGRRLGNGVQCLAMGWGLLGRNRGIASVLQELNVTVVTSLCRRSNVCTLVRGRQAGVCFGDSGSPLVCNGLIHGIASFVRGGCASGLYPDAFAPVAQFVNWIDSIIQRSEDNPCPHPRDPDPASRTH

human plasma kallikrein = human plasma kallikrein (Homo sapiens, UniProt P03952); assay: Kallikrein inhibition; format: biochemical
[2] = biological target: T2, Human neutrophil elastase (HNE) (Homo sapiens, UniProt P08246); assay: HNE inhibition assay; format: biochemical
T2 sequence (P08246 30-267): T1 sequence (P08246 30-267)

[3] = test system: human pancreas chymotrypsin; assay: Chymotrypsin inhibition; format: biochemical

Sequence of human plasma kallikrein (P03952 20-638): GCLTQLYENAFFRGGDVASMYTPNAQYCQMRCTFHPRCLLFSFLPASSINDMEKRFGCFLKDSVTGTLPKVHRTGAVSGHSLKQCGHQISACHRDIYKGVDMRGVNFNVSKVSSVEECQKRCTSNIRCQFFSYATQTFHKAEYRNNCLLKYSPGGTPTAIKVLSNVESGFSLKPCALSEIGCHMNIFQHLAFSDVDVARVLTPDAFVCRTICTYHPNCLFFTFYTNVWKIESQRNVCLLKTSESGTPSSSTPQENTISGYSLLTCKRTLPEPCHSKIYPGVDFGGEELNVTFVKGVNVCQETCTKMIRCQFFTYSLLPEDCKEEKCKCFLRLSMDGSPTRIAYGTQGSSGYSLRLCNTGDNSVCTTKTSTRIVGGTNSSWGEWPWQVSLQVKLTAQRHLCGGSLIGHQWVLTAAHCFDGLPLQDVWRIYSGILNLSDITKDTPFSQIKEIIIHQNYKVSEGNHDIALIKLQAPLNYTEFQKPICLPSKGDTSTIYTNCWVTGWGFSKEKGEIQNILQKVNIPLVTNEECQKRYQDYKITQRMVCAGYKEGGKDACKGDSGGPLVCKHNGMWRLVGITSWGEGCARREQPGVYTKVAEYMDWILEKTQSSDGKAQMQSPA

Q: With `Cc1cccc(C(=O)n2nc(C#N)c3ccccc32)c1` [Compound 5b, 1-(3-Methylbenzoyl)-1H-indazole-3-carbonitrile] as the compound, how does the “urokinase inhibition (in words)” value (human urine urokinase) read?
A: The value was “at micromolar concentrations”.

Q: And the “time after which compound was hydrolyzed almost completely” value [1]?
A: Its value is 35 min.

Q: What about the “thrombin inhibition (in words)” value (human plasma thrombin) of the same compound?
A: The value was “at micromolar concentrations”.

Q: With `COC(=O)c1nn(C(=O)c2ccccc2)c2ccc([N+](=O)[O-])cc12` [Compound 14a, 1-Benzoyl-5-nitro-1H-indazole-3-carboxylic Acid Methyl Ester] as the compound, how does the “time to recovery of HNE activity after treatment” value (HNE) read?
A: Its value is 1 to 2 h.

Q: What about the “kallikrein inhibition (in words)” value (human plasma kallikrein) of the same compound?
A: The value was “inhibited kallikrein”.

Q: For `COC(=O)c1nn(C(=O)c2cccc(C)c2)c2ccc([N+](=O)[O-])cc12` [Compound 14b, 1-(3-Methylbenzoyl)-5-nitro-1H-indazole-3-carboxylic Acid Methyl Ester], which “period of maximal HNE inhibition (during the first x h)” value (from here on “period of maximal HNE inhibition”) (HNE) is on record?
A: The value was 4 h.

Q: With `CCOC(=O)c1nn(C(=O)c2ccsc2)c2ccc([N+](=O)[O-])cc12` [Compound 14h, 5-Nitro-1-(thiophene-3-carbonyl)-1H-indazole-3-carboxylic Acid Ethyl Ester] as the compound, how does the “time to recovery of HNE activity after treatment” value (HNE) read?
A: The value was 1 to 2 h.

Q: For `COC(=O)c1nn(C(=O)c2cccc(C)c2)c2cc([N+](=O)[O-])ccc12` [Compound 15, 1-(3-Methylbenzoyl)-6-nitro-1H-indazole-3-carboxylic Acid Methyl Ester], which “period of maximal HNE inhibition” value (HNE) is on record?
A: The value was 4 h.

Q: Which “HNE inhibitory activity (in words)” value [2] does the source give for `COC(=O)c1nn(C(=O)c2cccc(C)c2)c2c([N+](=O)[O-])cccc12` [Compound 16, 1-(3-Methylbenzoyl)-7-nitro-1H-indazole-3-carboxylic Acid Methyl Ester] here?
A: Its value is “inactive”.

Q: For `CCOC(=O)c1nn(C(=O)c2cccc(C)c2)c2ccc(NC(C)=O)cc12` [Compound 20a, 5-Acetylamino-1-(3-methylbenzoyl)-1H-indazole-3-carboxylic Acid Ethyl Ester], which “period of maximal HNE inhibition” value (HNE) is on record?
A: Its value is 4 h.

Q: With `CCOC(=O)c1nn(C(=O)c2cccc(C)c2)c2ccc(NC(=O)C3CC3)cc12` [Compound 20f, 5-(Cyclopropanecarbonylamino)-1-(3-methylbenzoyl)-1H-indazole-3-carboxylic Acid Ethyl Ester] as the compound, how does the IC50 [2] read?
A: Its IC50 is roughly 10 nM.

Q: What about the “urokinase inhibition (in words)” value (human urine urokinase) of the same compound?
A: The value was “no inhibitory activity”.

Q: And the “period of maximal HNE inhibition” value (HNE)?
A: The value was 5 h.

Q: And the “chymotrypsin inhibition (in words)” value [3]?
A: The value was “lowest activity for this enzyme”.

Q: With `CCOC(=O)c1nn(C(=O)c2ccccc2)c2ccc(OC)cc12` [Compound 31d, 1-Benzoyl-5-methoxy-1H-indazole-3-carboxylic Acid Ethyl Ester] as the compound, how does the “increase of HNE inhibitory activity compared to the reference compounds A and F” value [2] read?
A: The value was 2-3 fold.

Q: For `CCOC(=O)c1nn(C(=O)c2cccc(C)c2)c2ccc(OC(F)(F)F)cc12` [Compound 31g, 1-(3-Methylbenzoyl)-5-trifluoromethoxy-1H-indazole-3-carboxylic Acid Ethyl Ester], which “increase of HNE inhibitory activity compared to the reference compounds A and F” value [2] is on record?
A: The value was 2-3 fold.
